Assay results: EP1985629A1, “Pro-apoptotic molecules and therapeutic uses thereof” (UNIVERSITA DEGLI STUDI DI GENOVA, priority 2007, dated 2008)
Where a SMILES comes first, the peptide text is derived from it. [ ]: non-standard residue; d: D form. Aib = CC(C)(N)C(=O)O

Key:
[1] = system: tumour cell lines; test: DNA flow cytometry (PI/SSC) for apoptosis in tumour cell lines; assay type: cell-based, human; conditions: 4 days
Procedure: • Figure 1 Fluorescence Anisotropy Assay. Average anisotropy values: (open square) binding assay for increasing concentrations of Bcl-XL at a fixed concentration of fluorescent Bak-BH3 peptide. […] The error bars represent standard deviations observed from triplicate experiments. • Figure 2 072RB: cell growth effects. Panel A: Cell growth of U937 cell line treated for four days every 24 h at a 1 µM 072RB concentration and every 48 h at 3, 5, 10 and 30 µM 072RB concentrations. U937 controls at day 4, cell number: 350,000 ±50,000. Number of cells seeded at day 0: 20,000. Arrows indicate treatment time. […] All cells were counted in a Burker chamber and values are expressed as percentage of the untreated control cell number. Only living cells identified by trypan blue exclusion staining were counted. […] Flow cytometry measurements of DNA content (evaluated by propidium iodide (PI) fluorescence intensity) and physical cell side-scattering (evaluated by SSC) in U937 cells treated with Int and 072RB at 10 µM, twice each 48h. […] Three main cell populations can be observed in the bivariate PI/SSC plots, one with low SSC and normal DNA content (that accounts for "live" cells in culture), another with high SSC and normal DNA content (cells undergoing "early stage of apoptosis") and another one with lower PI fluorescence (cells at "late stage of apoptosis" and debris). […]

[2] = Peptides stability in medium with 10% FBS or in 100% FBS (HPLC-MS); assay type: in vitro ADME; conditions: 37°C
Procedure: Compounds were added to the medium solution of serum 10% or 100% FBS at the final concentration of 32 µM. Several extraction mixtures were attempted: MeOH; MeOH with 0,1% trifluoroacetic acid (TFA); (H2O: MeOH) 1:1, 1:4, 4;1. A perchloric acid (PCA) protein precipitation protocol was also tried. […] In both cases ice-cold methanol was added to the peptide solution. The mixture was centrifuged and the resulting supernatant was then added with ice-cold methanol (alone or containing 0,1% TFA) at a 1:1 final ratio and this procedure was repeated twice. Before extraction peptides were incubated in 10% FBS or 100% FBS at 37°C and, at different incubation times (0', 6, 24 and 48 hours), a sample of 50 µl was collected to be analyzed by HPLC-MS.

Molecule	cell death (alive, early- and late-apoptotic fractions) ([1]; three cancer lines, 10 µM)	half-life at 32 µM ([2]; RPMI 1640 medium with 10% fetal bovine serum (FBS), medium (RPMI 1640) with 10% FBS, calculated by linear regression) [h]	half-life at 32 µM ([2]; bovine, 100% fetal bovine serum (FBS), 100% FBS) [h]	cell death (alive, early- and late-apoptotic fractions) ([1]; three tumour cell lines, 5 to 10 µM)
KKWKMRRNPFWIKIQR [Int, internalisation tag, a modified Q50P 16 aa Antennapedia IIIrd α-helix, reference compound]	substantially inactive			
CC[C@H](C)[C@H](NC(=O)[C@H](CCCNC(=N)N)NC(=O)[C@H](CCCNC(=N)N)NC(=O)[C@H](CC(C)C)NC(=O)[C@H](CCC(=O)O)NC(=O)[C@H](CCC(N)=O)NC(=O)C(C)(C)NC(=O)[C@@H](NC(=O)[C@H](Cc1ccc(O)cc1)NC(=O)[C@@H](NC(=O)[C@H](CCC(=O)O)NC(=O)[C@@H]1CCCN1C(=O)[C@H](CCCNC(=N)N)NC(=O)[C@H](CCSC)NC(=O)[C@@H](N)CC(=O)O)[C@@H](C)CC)[C@@H](C)CC)C(=O)NCC(=O)N[C@@H](CC(=O)O)C(=O)N[C@@H](C)C(=O)N[C@@H](Cc1ccccc1)C(=O)N[C@@H](CC(N)=O)C(=O)NC(C)(C)C(=O)N[C@@H](Cc1ccc(O)cc1)C(=O)N[C@@H](CCCCN)C(=O)N[C@@H](CCCCN)C(=O)N[C@@H](Cc1c[nH]c2ccccc12)C(=O)N[C@@H](CCCCN)C(=O)N[C@@H](CCSC)C(=O)N[C@@H](CCCNC(=N)N)C(=O)N[C@@H](CCCNC(=N)N)C(=O)N[C@@H](CC(N)=O)C(=O)N1CCC[C@H]1C(=O)N[C@@H](Cc1ccccc1)C(=O)N[C@@H](Cc1c[nH]c2ccccc12)C(=O)N[C@H](C(=O)N[C@@H](CCCCN)C(=O)N[C@H](C(=O)N[C@@H](CCC(N)=O)C(=O)N[C@@H](CCCNC(=N)N)C(N)=O)[C@@H](C)CC)[C@@H](C)CC [Peptide 072RB] (H-DMRPEIYI[Aib]QELRRIGDAFN[Aib]YKKWKMRRNPFWIKIQR-NH2; N-terminus and C-terminus assumed)		36.5	17.8	Significant cell death
